Tests used:
Format in all cases: physicochemical
[1] = Variable temperature XRPD study
Description: The sample was placed in Anton-Paar TTK 450 chamber at 25° C. The temperature was controlled in-situ through the measurement files: p2853-vt, LRP-1301-39-01.dql, LRP-1301-42-01.dql, LRP-1301-42-02.dql. The sample was heated from 25° C. to 200° C. at 1° C./min. XRPD data were collected from 30° C. to 200° C. every 10° C. Approximately 40 mg of the sample was placed in a Ni-coated sample holder under ambient conditions. The sample was loaded at 25° C.
At 200° C., changes (shifts) in peak position in the high 2-theta region were observed. This may be attributed to the thermal expansion effect.

[2] = Solubility profile of the polymorphic form
[3] = Thermodynamic stability of the polymorphic form
[4] = Dissolution rate comparison of Form A and Form B in size 1 capsules (FIG. 8); details: 50 mg drug substance/capsule, milled to D50 1-10 μm, compared with Form A
From the text: The products is milled to D50 1-10 μm.

[5] = Hygroscopicity of the polymorphic form; details: crystalline anhydrous form

form by XRPD after heating to 200° C. and cooling to room temperature ([1]; cooled to room temperature (20° C.))	solubility profile [2]	thermodynamic stability [3]	dissolution rate [4]	hygroscopicity [5]	temperature of conversion to Form B on heating ([1]; heated from 25° C. to 200° C. at 1° C./min)	Structure (SMILES)
remained unchanged	favourable solubility profile	thermodynamically stable	higher dissolution rate than Form A	non-hygroscopic	–	Cc1ccc(C(=O)NC2CC2)cc1-n1ncc(C(=O)c2cccc(C#N)c2)c1N [Form B, 3-[5-amino-4-(3-cyanobenzoyl)-pyrazol-1-yl]-N-cyclopropyl-4-methylbenzamide]
–	–	–	–	–	above 100 °C	Cc1ccc(C(=O)NC2CC2)cc1-n1ncc(C(=O)c2cccc(C#N)c2)c1N [Form A, 3-[5-amino-4-(3-cyanobenzoyl)-pyrazol-1-yl]-N-cyclopropyl-4-methylbenzamide]
